Results as given in patent US20050272055A1 (priority 2000, published 2005).
Entries after “also recorded” stand apart in the source; their conditions may differ.

Legend:
piglets [1] = settings: in vivo
human lymphoid cells = assay type: cell-based
TNF-α = assay type: cell-based, human
piglets [2] = system: piglets; set-up: species or system Yorkshire piglets; settings: in vivo
CD69 = assay type: cell-based, human

1,2,3,9-tetrahydro-9-methyl-3-[(2-methyl-1H-imidazol-1-yl)]4H-carbazol-4-one,monohychloride, dehydrate [Zofran]
BP-24 h (systolic blood pressure) (piglets [1]): 50-60 | BP-48 h (systolic blood pressure) (piglets [1]): 50-65 | Blood Gases (piglets [1]): norm | Temp-24 h (piglets [1]): 101-103° | Temp-48 h (piglets [1]): 100-103° | blood pressure levels in treated and untreated animals (piglets [1]): no change in the blood pressure | cytokine surge (piglets [1]): blocks the cytokine surge | diarrhea (piglets [1]): diarrhea was stopped | effectiveness as 5-HT receptor blockers against SEB-induced incapacitation (piglets [1]): effective | emesis (piglets [1]): recovered from emesis | symptoms caused by increase in serotonin levels (piglets [1]): can block the symptoms | temperature (piglets [1]): slight improvement in lowering the temperature

COc1ccc2c(c[n+](C)c3c4cc5c(cc4ccc23)OCO5)c1OC [Chelerythrine]
effect on SEB-induced proliferation (human lymphoid cells): effectively blocked | effect on SEB-induced TNF-alpha production (TNF-α): blocked production of TNF-α

O=c1c(-c2ccc(O)cc2)coc2cc(O[C@@H]3O[C@H](CO)[C@@H](O)[C@H](O)[C@H]3O)cc(O)c12 [Genistin]
animals showing this outcome (piglets [2]): 2/2 | changes in toxin-induced symptoms compared to the untreated controls (piglets [2]): did not show any significant changes | pathology versus SEB controls (piglets [2]): No discernable change in pathology

CO[C@H]1[C@@H](OC)C[C@H](C)[C@@H](OC)C2=CC(=O)C=C(NC(=O)/C(C)=C/C=C\[C@H](OC)[C@@H](OC(N)=O)/C(C)=C/[C@@H]1C)C2=O [Herbimycin]
animals showing this outcome (piglets [2]): 2/2 | changes in toxin-induced symptoms compared to the untreated controls (piglets [2]): did not show any significant changes | pathology versus SEB controls (piglets [2]): No discernable change in pathology | rescuing the animals (piglets [2]): partially effective

CN1C2CCCC1CC(NC(=O)c1nn(C)c3ccccc13)C2 (stereo not shown) [Kytril]
diarrhea (piglets [1]): diarrhea was stopped | effectiveness as 5-HT receptor blockers against SEB-induced incapacitation (piglets [1]): effective | symptoms caused by increase in serotonin levels (piglets [1]): can block the symptoms

C[S+]([O-])c1ccc(-c2nc(-c3ccncc3)c(-c3ccc(F)cc3)[nH]2)cc1 (stereo not shown) [P-38 inhibitor]
effect on SEB-induced proliferation (human lymphoid cells): clearly inhibited | effect on induction of the TNF-α gene by SEB (TNF-α): brought down back to control levels | effect on SEB induction of CD69 (CD69): clearly blocked

CC(=O)CCCCn1c(=O)c2c(ncn2C)n(C)c1=O [Pentoxifylline]
animals showing this pathology (piglets [2]): 3/3 | animals survived after the treatment (piglets [2]): 3 out of 3 | animals with moderate pathology (piglets [2]): 2/3 | animals worse-off, similar to SEB control (piglets [2]): 1/3 | gross pathology findings (piglets [2]): No perirenal or mesenteric edema, though there is mesenteric lymphadenopathy | pathology (piglets [2]): Mild pathology; also recorded: Moderate pathology | time post exposure to SEB up to which it works well (piglets [2]): up to 4 hours
